Literature values, collected in patent EP1195160B1, “Sustained release trimetazidine pharmaceutical compositions and a method of their preparation” (USV Ltd., priority 2000, dated 2002).
Read-outs that look alike come from different tables or passages of the source.

Key:
[1] = 20mg, single dose administration
[2] = value from the literature
[3] = 80mg dose, prolonged release coated reservoir system of EP 0 673 649, 12 volunteers
[4] = oral, immediate release preparation

COc1ccc(CN2CCNCC2)c(OC)c1OC.Cl.Cl [Trimetazidine dihydrochloride, 1-(2,3,4-trimethoxybenzyl)-piperazine dihydrochloride]
maximum plasma concentration Cmax [1]: 53.6 ± 9.0 ng/mL | Elimination half life t 1/2 [2]: t 1/2 = 6.0 hours. | Plasma concentration Css [2]: Css = 84ng/ml | T max [2]: T max = 1.8 ± 0.7 hours. | Volume of distribution Vd [2]: Vd = 294 litres. | steady state plasma concentration (Css) [3]: around 110 ng/ml | T max [4]: around 1.8 ± 0.7 hours | plasma half life [4]: around 6.0 ± 1.4 hours
